Assay results from patent publication US7423015B1, “Antihelminthic drugs as a treatment for hyperproliferative diseases” (Board of Regents, The University of Texas System, priority 2001, dated 2008).

What was measured:
H460 NSCLC cells = experiment: Cell cycle profiles by FACS, MZ and vinorelbine; assay type: cell-based, human; details: sub-therapeutic low dose
Procedure: FIG. 10. MZ Enhances activity of anti-mictotic drugs in H460 NSCLC cells. H460 cells were treated with low dose of MZ or Vinorelbine. Cell cycle profiles indicating G1/S G2-Mphases were analyzed by FACS.
The doses of MZ and vinorelbine were chosen to be “sub-therapeutic”. […] Thus, in H460 NSCLC cells mebendazole enhances the activity of anti-mitotic drugs.

[1] = tested on: A549 metastatic lung colonies; experiment: Lung metastases in vivo after tail vein injection; set-up: species or system female nude mice; details: paclitaxel alone, other experiments
Procedure: To establish lung metastases, female nude mice were injected intravenously via tail vein with 10^6 A549 tumor cells suspended in […] of sterile PBS. Six days later, mice were divided into two groups of 5 mice each and treated. Group 1 received no treatment and group 2 received the experimental MZ drug orally at 1 mg of drug (100 μl) twice a week for 3 weeks. After 3 weeks, animals were euthanized by CO2 inhalation. Lungs from each of the mice from the two groups were injected intra-tracheally with India ink and fixed in Feketes solution. The therapeutic effect of MZ treatment was determined by counting the number of metastatic tumors in each lung under a dissecting microscope without knowledge of the treatment groups. The experiments were performed three times and data analyzed and interpreted as statistically significant if the p value was <0.05 by the Mann-Whitney rank-sum test.
Next, the inventors asked whether treatment with MZ would inhibit the growth of human metastatic lung cancer cells in vivo. About 300 metastatic colonies appeared on untreated mice 21 days after A549 cell injection into the tail vein (FIG. 6). This technique was reproducible as the totals blindly counted by two investigators differed by less than 10%. This experiment was performed three times with similar results. The oral administration of […] MZ reduced mean colony count to 80% of the mean value for controls (P<0.0001).

Row | SMILES | apoptosis under monotherapy (H460 NSCLC cells) | colony formation [1]
1 | CCC1=C[C@@H]2CN(C1)Cc1c([nH]c3ccccc13)[C@@](C(=O)OC)(c1cc3c(cc1OC)N(C)[C@H]1[C@@](O)(C(=O)OC)[C@H](OC(C)=O)[C@]4(CC)C=CCN5CC[C@]31[C@@H]54)C2 [Vinorelbine] | No apoptosis | 
2 | CC(=O)O[C@H]1C(=O)[C@@]2(C)[C@H]([C@H](OC(=O)c3ccccc3)[C@]3(O)C[C@H](OC(=O)[C@H](O)[C@@H](NC(=O)c4ccccc4)c4ccccc4)C(C)=C1C3(C)C)[C@]1(OC(C)=O)CO[C@@H]1C[C@@H]2O [paclitaxel] |  | no significant reduction
